Source: PMC11624193, “Coupling cellular drug-target engagement to downstream pharmacology with CeTEAM” (Nature Communications, 2024)
Numbering of substitutions follows the chain as printed.

Experiments:
NUDT15 [1] = biological target: T1, NUDT15 (Homo sapiens, UniProt Q9NV35); experiment: enzyme-coupled malachite green assay with dGTP as substrate; assay type: biochemical
T1 construct: full-length wild-type
T1 sequence (Q9NV35 1-164): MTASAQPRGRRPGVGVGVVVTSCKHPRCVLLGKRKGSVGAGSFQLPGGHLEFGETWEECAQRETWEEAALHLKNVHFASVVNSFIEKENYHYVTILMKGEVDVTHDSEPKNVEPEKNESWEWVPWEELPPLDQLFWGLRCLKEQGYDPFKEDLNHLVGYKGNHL

NUDT15 [2] = biological target: T1, NUDT15; experiment: […] Å co-crystal structure; also enzyme-coupled malachite green inhibition assay and DSF; assay type: biochemical
NUDT15 [3] = biological target: T2, NUDT15 (Homo sapiens, UniProt Q9NV35, R139C); experiment: DSF thermal shift of purified protein with […] compound; HA-R139C stabilization in cells; assay type: binding; settings: read-out: DSF thermal shift of purified protein with 50 μM compound; HA-R139C stabilizatio
T2 construct: full-length R139C
T2 sequence (Q9NV35 1-164 R139C): T1 sequence (Q9NV35 1-164) with R139C

Structure (SMILES)	IC50 (NUDT15 [1]) [µM]	IC50 (NUDT15 [2]) [µM]	ΔTm at 50 µM (NUDT15 [3]) [°C]
CC(C)(c1ccccc1)n1cnc2c(=S)nc(N)[nH]c21 [TH8234, 2-amino-9-(2-phenylpropan-2-yl)-3H-purine-6(9H)-thione]	0.375	–	–
Nc1nc(S)c2ncn(C3CCCCC3)c2n1 [NSC56456, 2-amino-9-cyclohexyl-3H-purine-6-thione]	–	0.383	7
